Results taken from PubChem BioAssay (NCI).
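All cell lines were grown in 96-well plates and treated with compound for 48 hours. TGI is the concentration that stops growth completely.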

What was measured:
Assay in all cases: growth of human tumour cells (NCI), 48 h
786-0 renal = tested on: 786-0 renal
A498 renal = tested on: A498 renal
A549 NSCLC = tested on: A549 NSCLC
ACHN renal = tested on: ACHN renal
CAKI-1 renal = tested on: CAKI-1 renal
CCRF-CEM leukemia = tested on: CCRF-CEM leukemia
COLO 205 colon = tested on: COLO 205 colon
DU-145 prostate = tested on: DU-145 prostate
EKVX NSCLC = tested on: EKVX NSCLC
HCC-2998 colon = tested on: HCC-2998 colon
HCT-15 colon = tested on: HCT-15 colon
HOP-62 NSCLC = tested on: HOP-62 NSCLC
HOP-92 NSCLC = tested on: HOP-92 NSCLC
HS 578T breast = tested on: HS 578T breast
HT29 colon = tested on: HT29 colon
IGROV1 ovarian = tested on: IGROV1 ovarian
KM12 colon = tested on: KM12 colon
LOX IMVI melanoma = tested on: LOX IMVI melanoma
M14 melanoma = tested on: M14 melanoma
MALME-3M melanoma = tested on: MALME-3M melanoma
MCF7 breast = tested on: MCF7 breast
MDA-MB-231 breast = tested on: MDA-MB-231 breast
MDA-MB-435 = tested on: MDA-MB-435
MDA-N = tested on: MDA-N
NCI-H226 lung = tested on: NCI-H226 lung
NCI-H23 lung = tested on: NCI-H23 lung
NCI-H460 lung = tested on: NCI-H460 lung
NCI-H522 lung = tested on: NCI-H522 lung
NCI/ADR-RES ovarian = tested on: NCI/ADR-RES ovarian
OVCAR-3 ovarian = tested on: OVCAR-3 ovarian
OVCAR-4 ovarian = tested on: OVCAR-4 ovarian
OVCAR-5 ovarian = tested on: OVCAR-5 ovarian
OVCAR-8 ovarian = tested on: OVCAR-8 ovarian
PC-3 prostate = tested on: PC-3 prostate
RPMI-8226 leukemia = tested on: RPMI-8226 leukemia
RXF 393 renal = tested on: RXF 393 renal
SF-268 CNS = tested on: SF-268 CNS
SF-295 CNS = tested on: SF-295 CNS
SK-MEL-2 melanoma = tested on: SK-MEL-2 melanoma
SK-MEL-28 melanoma = tested on: SK-MEL-28 melanoma
SK-MEL-5 melanoma = tested on: SK-MEL-5 melanoma
SK-OV-3 ovarian = tested on: SK-OV-3 ovarian
SNB-19 CNS = tested on: SNB-19 CNS
SNB-75 CNS = tested on: SNB-75 CNS
SW-620 colon = tested on: SW-620 colon
T-47D breast = tested on: T-47D breast
TK-10 renal = tested on: TK-10 renal
U251 CNS = tested on: U251 CNS
UACC-257 melanoma = tested on: UACC-257 melanoma
UACC-62 melanoma = tested on: UACC-62 melanoma
UO-31 renal = tested on: UO-31 renal
HCT-116 colon = tested on: HCT-116 colon
HL-60(TB) leukemia = tested on: HL-60(TB) leukemia
MOLT-4 leukemia = tested on: MOLT-4 leukemia
SN12C renal = tested on: SN12C renal
SR leukemia = tested on: SR leukemia
K-562 leukemia = tested on: K-562 leukemia
SF-539 CNS = tested on: SF-539 CNS

Measured: TGI

COP(C)(=O)C1=CCN(C(=O)OCC[Si](C)(C)C)CC1 (stereo unspecified)
> 100 µM: 786-0 renal | A498 renal | A549 NSCLC | ACHN renal | CAKI-1 renal | CCRF-CEM leukemia | COLO 205 colon | DU-145 prostate | EKVX NSCLC | HCC-2998 colon | HCT-15 colon | HOP-62 NSCLC | HOP-92 NSCLC | HS 578T breast | HT29 colon | IGROV1 ovarian | KM12 colon | LOX IMVI melanoma | M14 melanoma | MALME-3M melanoma | MCF7 breast | MDA-MB-231 breast | MDA-MB-435 | MDA-N | NCI-H226 lung | NCI-H23 lung | NCI-H460 lung | NCI-H522 lung | NCI/ADR-RES ovarian | OVCAR-3 ovarian | OVCAR-4 ovarian | OVCAR-5 ovarian | OVCAR-8 ovarian | PC-3 prostate | RPMI-8226 leukemia | RXF 393 renal | SF-268 CNS | SF-295 CNS | SK-MEL-2 melanoma | SK-MEL-28 melanoma | SK-MEL-5 melanoma | SK-OV-3 ovarian | SNB-19 CNS | SNB-75 CNS | SW-620 colon | T-47D breast | TK-10 renal | U251 CNS | UACC-257 melanoma | UACC-62 melanoma | UO-31 renal

S=C(/C=C1\SC(=Nc2ccccc2)C(=Nc2ccccc2)N1c1ccccc1)Nc1ccccc1
> 100 µM: A498 renal | CAKI-1 renal | CCRF-CEM leukemia | COLO 205 colon | DU-145 prostate | HCT-116 colon | HCT-15 colon | HL-60(TB) leukemia | HOP-62 NSCLC | HOP-92 NSCLC | HS 578T breast | HT29 colon | IGROV1 ovarian | KM12 colon | M14 melanoma | MALME-3M melanoma | MDA-MB-231 breast | MDA-MB-435 | MDA-N | MOLT-4 leukemia | NCI-H23 lung | NCI-H460 lung | NCI-H522 lung | NCI/ADR-RES ovarian | OVCAR-3 ovarian | OVCAR-8 ovarian | PC-3 prostate | RPMI-8226 leukemia | SF-295 CNS | SK-MEL-2 melanoma | SK-MEL-28 melanoma | SK-MEL-5 melanoma | SK-OV-3 ovarian | SN12C renal | SNB-75 CNS | SR leukemia | T-47D breast | U251 CNS | UACC-62 melanoma

CC(=O)CC1(OC(=O)C2C(C=C(C)C)C2(C)C)C(=O)Nc2ccccc21 (stereo unspecified)
> 100 µM: 786-0 renal | A498 renal | A549 NSCLC | ACHN renal | CAKI-1 renal | CCRF-CEM leukemia | COLO 205 colon | DU-145 prostate | EKVX NSCLC | HCC-2998 colon | HCT-116 colon | HCT-15 colon | HL-60(TB) leukemia | HOP-62 NSCLC | HS 578T breast | HT29 colon | IGROV1 ovarian | K-562 leukemia | KM12 colon | LOX IMVI melanoma | M14 melanoma | MALME-3M melanoma | MDA-MB-231 breast | MDA-MB-435 | MDA-N | MOLT-4 leukemia | NCI-H226 lung | NCI-H23 lung | NCI-H460 lung | NCI-H522 lung | NCI/ADR-RES ovarian | OVCAR-3 ovarian | OVCAR-4 ovarian | OVCAR-5 ovarian | OVCAR-8 ovarian | PC-3 prostate | RPMI-8226 leukemia | RXF 393 renal | SF-268 CNS | SF-295 CNS | SF-539 CNS | SK-MEL-2 melanoma | SK-MEL-28 melanoma | SK-MEL-5 melanoma | SK-OV-3 ovarian | SN12C renal | SNB-19 CNS | SNB-75 CNS | SR leukemia | SW-620 colon | T-47D breast | TK-10 renal | U251 CNS | UACC-257 melanoma | UACC-62 melanoma | UO-31 renal
